For data set [1], the system named is red blood cells. Put plainly: Lytic activity of QS21 alone versus QS21 in the Inflexal V formulation against red blood cells, OD at 540 nm. In kind it is cell-based. The following applies: equivalent of 2.5 μg QS21 in 900 μl PBS pH 7.4 + 100 μl red blood cells, 30 minutes at RT. The method, then: 500 μl Inflexal V® vaccine, has been adjuvanted by the addition of 50 μg QS21. The resulting composition of this mixture is: +/−117 μg of Lecithin, 45 μg HA, 50 μg QS21 in 525 μl. The lytic activity of QS21 in this formulation has been compared to the lytic activity of QS21 alone.
Practically, a volume of the formulation “Inflexal V+QS21” containing the equivalent of 2.5 μg of QS21 is added to PBS pH 7.4 to reach a final volume of 900 μl. In parallel, 2.5 μg QS21 is taken and also diluted to 900 μl with PBS.
100 μl of red blood cells (10× diluted) are added to those 2 samples as described above. Samples are let for 30 minutes at RT. After centrifugation at 2000 rpm, the OD of the supernatant is red at 540 nm.

Data set [2] deals with red blood cells. Conditions: OD at 540 nm.
The conditions of data set [3]: QS21 injected parenterally as a free molecule; cited from earlier work.

Where two headings read alike, the source gives them in different places.

With QS21, the OD amounted to 1.63 in the data set with red blood cells [1], 0.217 in the data set with red blood cells [2] (1 μg QS21), 0.631 in the data set on red blood cells [2] (1.5 μg QS21) and 0.891 in the data set with red blood cells [2] (2.5 μg QS21). For the same substance, the injection site observation result in data set [3] is “necrosis”.
